In US9738673B1, “Ferrocene derivative, preparation method and use thereof” (XIAMEN INSTITUTE OF RARE EARTH MATERIALS, priority 2016, dated 2017) one finds IC50 data, which are given here for 16 compounds.

Assay [1] has as its system breast cancer cell line MCF-7. Put plainly: In vitro anticancer activity MTT assay, MCF-7. Format: cell-based, human. To be noted: 48 h, MCF-7 cells. As for the experimental part: (§1) Using a wavelength-tunable microplate reader absorbance value (A595) was measured at 595 nm. Inhibitory ratio was calculated with the following formula: […]
(§2) wherein, IC50 values were calculated using the GraphPad Prism 5 software.

The test system of assay [2] is human lung cancer cell line A549. Put plainly: In vitro anticancer activity MTT assay, A549. The class given is cell-based. Conditions: 48 h, A549 cells. On the procedure: as §1, §2
Assay [3] concerns colorectal cancer cell line HCT-116. Description: In vitro anticancer activity MTT assay, HCT116. Format: cell-based, human. Conditions: 48 h, HCT116 cells. As for the experimental part: as §1, §2

For `O=C(OCc1cc(-c2ccccc2)no1)[c-]1cccc1.O=C(OCc1cc(-c2ccccc2)no1)[c-]1cccc1.[Fe+2]` [YJP-1], the IC50 amounted to 990 µM in assay [1] and 252 µM in assay [2].
`Cc1cc(C)c(-c2cc(COC(=O)[c-]3cccc3)on2)c(C)c1.Cc1cc(C)c(-c2cc(COC(=O)[c-]3cccc3)on2)c(C)c1.[Fe+2]` [YJP-5]: the IC50 in assay [1] is 142 µM; in assay [2], 189 µM.
Regarding `COc1ccc(-c2cc(COC(=O)[c-]3cccc3)on2)cc1.COc1ccc(-c2cc(COC(=O)[c-]3cccc3)on2)cc1.[Fe+2]` [YJP-6], in assay [1], it took 182 µM to reach half-maximal inhibition (IC50).
For the compound `COc1cccc(-c2cc(COC(=O)[c-]3cccc3)on2)c1.COc1cccc(-c2cc(COC(=O)[c-]3cccc3)on2)c1.[Fe+2]` [YJP-8], the values for the IC50 in assay [3], in assay [1] and in assay [2] were 236 µM, 138 µM and 142 µM, respectively.
As for `CC(C)(C)c1ccc(-c2cc(COC(=O)[c-]3cccc3)on2)cc1.CC(C)(C)c1ccc(-c2cc(COC(=O)[c-]3cccc3)on2)cc1.[Fe+2]` [YJP-4], the IC50 in assay [3] was 2180 µM; in assay [1], 150 µM; in assay [2], 220 µM.
For `O=C(OCc1cc(-c2ccc(Cl)cc2)no1)[c-]1cccc1.O=C(OCc1cc(-c2ccc(Cl)cc2)no1)[c-]1cccc1.[Fe+2]` [YJP-13] the same measures were 486 µM, 169 µM and 690 µM.
`O=C(OCc1cc(-c2ccc(Cl)cc2Cl)no1)[c-]1cccc1.O=C(OCc1cc(-c2ccc(Cl)cc2Cl)no1)[c-]1cccc1.[Fe+2]` [YJP-15]: the IC50 in assay [3] is 234 µM; in assay [1], 190 µM; in assay [2] it was 222 µM.
For `O=C(OCc1cc(-c2ccc(Br)cc2)no1)[c-]1cccc1.O=C(OCc1cc(-c2ccc(Br)cc2)no1)[c-]1cccc1.[Fe+2]` [YJP-16], the values for the IC50 in assay [3], in assay [1] and in assay [2] were 63.9 µM, 156 µM and 251 µM, respectively.
Consider `O=C(OCc1cc(-c2ccc(F)cc2)no1)[c-]1cccc1.O=C(OCc1cc(-c2ccc(F)cc2)no1)[c-]1cccc1.[Fe+2]` [YJP-11], for which the IC50 worked out at 138 µM in assay [1] and 2860 µM in assay [2].
With `O=C(OCc1cc(-c2ccccc2F)no1)[c-]1cccc1.O=C(OCc1cc(-c2ccccc2F)no1)[c-]1cccc1.[Fe+2]` [YJP-12], the values for the IC50 in assay [3], in assay [1] and in assay [2] were 149 µM, 159 µM and 168 µM, respectively.
In the case of `O=C(OCc1cc(-c2ccc([N+](=O)[O-])cc2)no1)[c-]1cccc1.O=C(OCc1cc(-c2ccc([N+](=O)[O-])cc2)no1)[c-]1cccc1.[Fe+2]` [YJP-19], the values for the IC50 in assay [3], in assay [1] and in assay [2] were 157 µM, 178 µM and 530 µM, respectively.
Compound `O=C(OCc1cc(-c2ccc(C(F)(F)F)cc2)no1)[c-]1cccc1.O=C(OCc1cc(-c2ccc(C(F)(F)F)cc2)no1)[c-]1cccc1.[Fe+2]` [YJP-9] yielded a concentration for half-maximal inhibition (IC50) in assay [1] of 133 µM.
Regarding `COc1ccccc1-c1cc(COC(=O)[c-]2cccc2)on1.COc1ccccc1-c1cc(COC(=O)[c-]2cccc2)on1.[Fe+2]` [YJP-7], the results for the IC50 in assay [1] and in assay [2] were 157 µM and 868 µM, respectively.
Turning to `Cc1ccc(-c2cc(COC(=O)[c-]3cccc3)on2)cc1.Cc1ccc(-c2cc(COC(=O)[c-]3cccc3)on2)cc1.[Fe+2]` [YJP-2], the IC50 in assay [3] came out at 220 µM; in assay [1], 136 µM; in assay [2], 198 µM.
Compound `CCc1ccc(-c2cc(COC(=O)[c-]3cccc3)on2)cc1.CCc1ccc(-c2cc(COC(=O)[c-]3cccc3)on2)cc1.[Fe+2]` [YJP-3] had an IC50 in assay [1] of 86.8 µM. In other words, the double-digit micromolar range.
`O=C(OCc1cc(-c2ccccc2Cl)no1)[c-]1cccc1.O=C(OCc1cc(-c2ccccc2Cl)no1)[c-]1cccc1.[Fe+2]` [YJP-14]: the half-inhibitory concentration (IC50) in assay [3] came to 228 µM; in assay [1], 172 µM; in assay [2], 450 µM.
